Laboratory results reported in PubChem BioAssay (NCI).
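GI50 = concentration required for 50% inhibition of growth. TGI marks complete inhibition of growth.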

Key:
Experiment in all cases: NCI-60 cell line screen, 384-well format
RXF 393 renal = tested on: RXF 393 renal
K-562 leukemia = tested on: K-562 leukemia
OVCAR-5 ovarian = tested on: OVCAR-5 ovarian
NCI-H226 lung = tested on: NCI-H226 lung
RPMI-8226 leukemia = tested on: RPMI-8226 leukemia
KM12 colon = tested on: KM12 colon
NCI-H522 lung = tested on: NCI-H522 lung
LOX IMVI melanoma = tested on: LOX IMVI melanoma
HL-60(TB) leukemia = tested on: HL-60(TB) leukemia
MOLT-4 leukemia = tested on: MOLT-4 leukemia
SNB-19 CNS = tested on: SNB-19 CNS
U251 glioblastoma = tested on: U251 glioblastoma
HOP-92 NSCLC = tested on: HOP-92 NSCLC
EKVX NSCLC = tested on: EKVX NSCLC
MDA-MB-435 melanoma = tested on: MDA-MB-435 melanoma
MDA-MB-231 breast = tested on: MDA-MB-231 breast
OVCAR-8 ovarian = tested on: OVCAR-8 ovarian
CAKI-1 renal = tested on: CAKI-1 renal
UACC-62 melanoma = tested on: UACC-62 melanoma
SF-539 CNS = tested on: SF-539 CNS
NCI/ADR-RES ovarian = tested on: NCI/ADR-RES ovarian
OVCAR-3 ovarian = tested on: OVCAR-3 ovarian
M14 melanoma = tested on: M14 melanoma
SF-295 CNS = tested on: SF-295 CNS
HS 578T breast = tested on: HS 578T breast
SN12C renal = tested on: SN12C renal
SK-MEL-28 melanoma = tested on: SK-MEL-28 melanoma
SK-OV-3 ovarian = tested on: SK-OV-3 ovarian
HT29 colon = tested on: HT29 colon
UACC-257 melanoma = tested on: UACC-257 melanoma
BT-549 breast = tested on: BT-549 breast
PC-3 prostate = tested on: PC-3 prostate
HOP-62 NSCLC = tested on: HOP-62 NSCLC
786-0 renal = tested on: 786-0 renal
SW-620 colon = tested on: SW-620 colon
HCT-15 colon = tested on: HCT-15 colon
ACHN renal = tested on: ACHN renal
NCI-H322M lung = tested on: NCI-H322M lung
A498 renal = tested on: A498 renal
T-47D breast = tested on: T-47D breast
CCRF-CEM leukemia = tested on: CCRF-CEM leukemia
UO-31 renal = tested on: UO-31 renal
MALME-3M melanoma = tested on: MALME-3M melanoma
NCI-H23 lung = tested on: NCI-H23 lung
SNB-75 CNS = tested on: SNB-75 CNS
A549 NSCLC = tested on: A549 NSCLC
SF-268 CNS = tested on: SF-268 CNS
SK-MEL-2 melanoma = tested on: SK-MEL-2 melanoma
IGROV1 ovarian = tested on: IGROV1 ovarian
OVCAR-4 ovarian = tested on: OVCAR-4 ovarian
DU-145 prostate = tested on: DU-145 prostate
MDA-MB-468 breast = tested on: MDA-MB-468 breast
MCF7 breast = tested on: MCF7 breast
TK-10 renal = tested on: TK-10 renal
HCT-116 colon = tested on: HCT-116 colon

Nc1nc(=S)c2[nH]cnc2[nH]1 was tested, and the GI50 (RXF 393 renal) was 728 nM, the TGI (RXF 393 renal) was 3510 nM and the GI50 (K-562 leukemia) was 366 nM. The TGI (K-562 leukemia) was 1210 nM, the GI50 (OVCAR-5 ovarian) was 199 nM and the TGI (OVCAR-5 ovarian) was 465 nM. It also gave a GI50 (NCI-H226 lung) of 360 nM, a TGI (NCI-H226 lung) of 3920 nM and a GI50 (RPMI-8226 leukemia) of 139 nM. The TGI (RPMI-8226 leukemia) was 296 nM, the GI50 (KM12 colon) was 917 nM and the TGI (KM12 colon) was 4900 nM. For the same compound, the GI50 (NCI-H522 lung) was 1030 nM, the TGI (NCI-H522 lung) was 2840 nM and the GI50 (LOX IMVI melanoma) was 206 nM. The TGI (LOX IMVI melanoma) was 426 nM, the GI50 (HL-60(TB) leukemia) was 376 nM and the TGI (HL-60(TB) leukemia) was 1100 nM. It also gave a GI50 (MOLT-4 leukemia) of 112 nM, a TGI (MOLT-4 leukemia) of 248 nM and a GI50 (SNB-19 CNS) of 28000 nM. For the same compound, the GI50 (U251 glioblastoma) was 3400 nM, the TGI (U251 glioblastoma) was 83300 nM and the GI50 (HOP-92 NSCLC) was 393 nM. For the same compound, the TGI (HOP-92 NSCLC) was 25200 nM, the GI50 (EKVX NSCLC) was 544 nM and the TGI (EKVX NSCLC) was 12200 nM. It also gave a GI50 (MDA-MB-435 melanoma) of 1090 nM, a TGI (MDA-MB-435 melanoma) of 4730 nM and a GI50 (MDA-MB-231 breast) of 283 nM. It also gave a TGI (MDA-MB-231 breast) of 918 nM, a GI50 (OVCAR-8 ovarian) of 362 nM and a TGI (OVCAR-8 ovarian) of 1560 nM. The GI50 (CAKI-1 renal) was 371 nM, the TGI (CAKI-1 renal) was 2620 nM and the GI50 (UACC-62 melanoma) was 366 nM. For the same compound, the TGI (UACC-62 melanoma) was 1690 nM, the GI50 (SF-539 CNS) was 686 nM and the TGI (SF-539 CNS) was 7920 nM. For the same compound, the GI50 (NCI/ADR-RES ovarian) was 375 nM, the TGI (NCI/ADR-RES ovarian) was 1520 nM and the GI50 (OVCAR-3 ovarian) was 306 nM. For the same compound, the TGI (OVCAR-3 ovarian) was 1030 nM, the GI50 (M14 melanoma) was 379 nM and the TGI (M14 melanoma) was 4410 nM. It also gave a GI50 (SF-295 CNS) of 248 nM, a TGI (SF-295 CNS) of 735 nM and a GI50 (HS 578T breast) of 1250 nM. It also gave a TGI (HS 578T breast) of 4460 nM, a GI50 (SN12C renal) of 1440 nM and a TGI (SN12C renal) of 8290 nM. For the same compound, the GI50 (SK-MEL-28 melanoma) was 4570 nM, the TGI (SK-MEL-28 melanoma) was 26700 nM and the GI50 (SK-OV-3 ovarian) was 541 nM. The TGI (SK-OV-3 ovarian) was 9850 nM, the GI50 (HT29 colon) was 906 nM and the TGI (HT29 colon) was 5300 nM. It also gave a GI50 (UACC-257 melanoma) of 1130 nM, a TGI (UACC-257 melanoma) of 8820 nM and a GI50 (BT-549 breast) of 449 nM. It also gave a TGI (BT-549 breast) of 2310 nM, a GI50 (PC-3 prostate) of 1340 nM and a TGI (PC-3 prostate) of 14500 nM. The GI50 (HOP-62 NSCLC) was 304 nM, the TGI (HOP-62 NSCLC) was 784 nM and the GI50 ([…]-0 renal) was 469 nM. The TGI (786-0 renal) was 12000 nM, the GI50 (SW-620 colon) was 3020 nM and the TGI (SW-620 colon) was 23300 nM. The GI50 (HCT-15 colon) was 988 nM, the TGI (HCT-15 colon) was 7180 nM and the GI50 (ACHN renal) was 1520 nM. It also gave a TGI (ACHN renal) of 5280 nM, a GI50 (NCI-H322M lung) of 2210 nM and a TGI (NCI-H322M lung) of 21200 nM. It also gave a GI50 (A498 renal) of 4850 nM, a TGI (A498 renal) of 28700 nM and a GI50 (T-47D breast) of 715 nM. It also gave a TGI (T-47D breast) of 15500 nM, a GI50 (CCRF-CEM leukemia) of 212 nM and a TGI (CCRF-CEM leukemia) of 383 nM. For the same compound, the GI50 (UO-31 renal) was 1500 nM, the TGI (UO-31 renal) was 11800 nM and the GI50 (MALME-3M melanoma) was 718 nM. The TGI (MALME-3M melanoma) was 3470 nM, the GI50 (NCI-H23 lung) was 377 nM and the TGI (NCI-H23 lung) was 1690 nM. The GI50 (SNB-75 CNS) was 353 nM, the TGI (SNB-75 CNS) was 13200 nM and the GI50 (A549 NSCLC) was 2100 nM. The TGI (A549 NSCLC) was 7530 nM, the GI50 (SF-268 CNS) was 428 nM and the TGI (SF-268 CNS) was 2400 nM. It also gave a GI50 (SK-MEL-2 melanoma) of 3320 nM, a TGI (SK-MEL-2 melanoma) of 7340 nM and a GI50 (IGROV1 ovarian) of 3510 nM. It also gave a TGI (IGROV1 ovarian) of 27700 nM, a GI50 (OVCAR-4 ovarian) of 1050 nM and a TGI (OVCAR-4 ovarian) of 7190 nM. It also gave a GI50 (DU-145 prostate) of 311 nM, a TGI (DU-145 prostate) of 1180 nM and a GI50 (MDA-MB-468 breast) of 238 nM. The TGI (MDA-MB-468 breast) was 565 nM, the GI50 (MCF7 breast) was 297 nM and the TGI (MCF7 breast) was 1330 nM. It also gave a GI50 (TK-10 renal) of 251 nM, a TGI (TK-10 renal) of 625 nM and a GI50 (HCT-116 colon) of 341 nM. The TGI (HCT-116 colon) was 7390 nM.
